Experimental data taken from US7351728B2, “Oxazolyl-aryloxyacetic acid derivatives and their use as PPAR agonists” (Eli Lilly and Company, priority 2003, dated 2008).

Columns and labels:
[1] = target: T1, huPPARγ (Homo sapiens, UniProt P37231); assay: DNA-dependent binding (ABCD binding), SPA, tritium-labeled PPARγ agonist radioligand; settings: displacement of tritium-labeled PPARγ agonist
T1 sequence (P37231 1-505): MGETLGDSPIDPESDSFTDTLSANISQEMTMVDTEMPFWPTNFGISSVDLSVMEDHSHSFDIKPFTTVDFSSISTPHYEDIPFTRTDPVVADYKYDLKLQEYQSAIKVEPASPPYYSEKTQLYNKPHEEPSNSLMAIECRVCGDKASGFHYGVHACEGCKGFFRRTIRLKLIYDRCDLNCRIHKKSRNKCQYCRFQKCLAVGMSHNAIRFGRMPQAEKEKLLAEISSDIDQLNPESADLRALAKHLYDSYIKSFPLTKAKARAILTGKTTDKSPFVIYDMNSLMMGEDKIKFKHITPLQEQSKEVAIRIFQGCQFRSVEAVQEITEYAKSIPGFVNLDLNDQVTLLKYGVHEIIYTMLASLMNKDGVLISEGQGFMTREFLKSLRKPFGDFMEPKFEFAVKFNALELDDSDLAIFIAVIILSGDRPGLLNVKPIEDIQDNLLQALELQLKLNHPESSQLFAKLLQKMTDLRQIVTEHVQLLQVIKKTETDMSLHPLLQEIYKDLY
T1 sequence (P19793 1-462 partner): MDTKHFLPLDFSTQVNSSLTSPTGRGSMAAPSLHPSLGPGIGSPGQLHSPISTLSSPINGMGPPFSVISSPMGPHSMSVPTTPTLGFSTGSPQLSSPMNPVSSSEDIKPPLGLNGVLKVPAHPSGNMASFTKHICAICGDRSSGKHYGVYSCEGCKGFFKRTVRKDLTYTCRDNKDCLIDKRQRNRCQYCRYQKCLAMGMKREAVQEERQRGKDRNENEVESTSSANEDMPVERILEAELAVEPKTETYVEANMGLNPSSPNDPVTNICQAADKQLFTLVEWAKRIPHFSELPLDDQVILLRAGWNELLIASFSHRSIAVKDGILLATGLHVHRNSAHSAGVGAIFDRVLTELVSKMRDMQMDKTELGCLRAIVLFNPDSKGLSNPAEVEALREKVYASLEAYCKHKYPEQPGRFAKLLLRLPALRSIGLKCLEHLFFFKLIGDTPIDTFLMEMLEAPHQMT
Protocol: (§1) DNA-dependent binding (ABCD binding) was carried out using SPA technology with PPAR receptors. Tritium-labeled PPARα and PPARγ agonists were used as radioligands for generating displacement curves and IC50 values with compounds of the invention. Cotransfection assays were carried out in CV-1 cells. The reporter plasmid contained an acylCoA oxidase (AOX) PPRE and TK promoter upstream of the luciferase reporter cDNA. Appropriate PPARs and RXRα were constitutively expressed using plasmids containing the CMV promoter. […] In order to eliminate such interference, a GAL4 chimeric system was used in which the DNA binding domain of the transfected PPAR was replaced by that of GAL4, and the GAL4 response element was utilized in place of the AOX PPRE. Cotransfection efficacy was determined relative to PPARα agonist and PPARγ agonist reference molecules. Efficacies were determined by computer fit to a concentration-response curve, or in some cases at a single high concentration of agonist (10 μM). For binding or cotransfection studies with receptors other than PPARs, similar assays were carried out using appropriate ligands, receptors, reporter constructs, etc., for that particular receptor.
(§2) These studies were carried out to evaluate the ability of compounds of the invention to bind to and/or activate various nuclear transcription factors, particularly huPPARα (“hu” indicates “human”) and huPPARγ. These studies provide in vitro data concerning efficacy and selectivity of compounds of the invention. Furthermore, binding and cotransfection data for compounds of the invention were compared with corresponding data for marketed compounds that act on either huPPARα or huPPARγ.
(§3) Binding and cotransfection data for representative compounds of the invention are compared with corresponding data for reference compounds in Table II.

[2] = target: T1, huPPARγ; assay: Cotransfection assay in CV-1 cells, AOX PPRE luciferase reporter; format: cell-based; design: expressed in transfected cells; host or cells: CV-1 cells; settings: cotransfection efficacy relative to PPARγ agonist reference molecule, read-out: huPPARγ CTF Eff. (%)
Protocol: as §1, §2, §3

Row | IC50 [1] [µM] | Emax [2] [%] | melting point [°C] | Structure (SMILES)
1 | 0.049 | 63 | – | CCCc1cc(OC(C)(C)C(=O)O)ccc1OCCc1nc(-c2ccccc2)oc1C [Example 27A, 2-Methyl-2-{4-[2-(5-methyl-2-phenyloxazol-4-yl)ethoxy]-3-propylphenoxy}propionic acid]
2 | 0.078 | 92 | – | CCc1cc(OCCc2nc(-c3ccccc3)oc2C)ccc1OC(C)(C)C(=O)O [Example 30A, 2-{2-Ethyl-4-[2-(5-methyl-2-phenyloxazol-4-yl)ethoxy]phenoxy}2-methylpropionic acid]
3 | 0.148 | 63 | – | Cc1oc(-c2ccccc2)nc1CCOc1ccc(OC(C)(C)C(=O)O)c(CC(C)C)c1 [Example 30C, 2-{2-Isobutyl-4-[2-(5-methyl-2-phenyloxazol-4-yl)ethoxy]phenoxy}-2-methylpropionic acid]
4 | 0.083 | 50 | – | Cc1oc(-c2ccccc2)nc1CCOc1ccc(OC(C)(C)C(=O)O)c(CCc2ccccc2)c1 [Example 30J, 2-Methyl-2-{4-[2-(5-methyl-2-phenyloxazol-4-yl)ethoxy]-2-phenethylphenoxy}propionic acid]
5 | 0.01 | 51 | – | CCCCc1cc(OC(C)(C)C(=O)O)ccc1OCCc1nc(-c2ccccc2)oc1C [Example 31F, 2-{3-Butyl-4-[2-(5-methyl-2-phenyloxazol-4-yl)ethoxy]phenoxy}-2-methylpropionic acid]

More lines, now with the values behind:

Row | Structure (SMILES) | IC50 [1] [µM] | Emax [2] [%] | melting point [°C]
6 | Cc1oc(-c2ccccc2)nc1CCOc1ccc(OC(C)(C)C(=O)O)cc1 [Example 1, 2-Methyl-2-{4-[2-(5-methyl-2-phenyloxazol-4-yl)ethoxy]phenoxy}propionic acid] | 2.13 | 69 | –
7 | Cc1oc(-c2cccc(Br)c2)nc1CCOc1ccc(OC(C)(C)C(=O)O)cc1 [Example 9A, 2-(4-{2-[2-(3-Bromophenyl)-5-methyloxazol-4-yl]ethoxy}phenoxy)-2-methylpropionic acid] | 0.18 | 60 | 158 to 159
8 | CCc1cccc(-c2nc(CCOc3ccc(OC(C)(C)C(=O)O)cc3)c(C)o2)c1 [Example 12, 2-(4-{2-[2-(3-Ethylphenyl)-5-methyloxazol-4-yl]ethoxy}phenoxy)-2-methylpropionic acid] | 0.219 | 66 | 134 to 135
9 | Cc1oc(-c2cccc(CCc3ccccc3)c2)nc1CCOc1ccc(OC(C)(C)C(=O)O)cc1 [Example 12A, 2-Methyl-2-(4-{2-[5-methyl-2-(3-phenethylphenyl)oxazol-4-yl]ethoxy}phenoxy)-propionic acid] | 0.102 | 170 | 124 to 125
10 | CCc1ccc(-c2nc(CCOc3ccc(OC(C)(C)C(=O)O)cc3)c(C)o2)cc1 [Example 13, 2-(4-{2-[2-(4-Ethylphenyl)-5-methyloxazol-4-yl]ethoxy}phenoxy)-2-methylpropionic acid] | 0.42 | 109 | –
11 | Cc1oc(-c2ccc(OC3CCCCC3)cc2)nc1CCOc1ccc(OC(C)(C)C(=O)O)cc1 [Example 21, 2-(4-{2-[2-(4-Cyclohexyloxy-phenyl)-5-methyl-oxazol-4-yl]-ethoxy}-phenoxy)-2-methyl-propionic acid] | 0.627 | 85 | –
12 | Cc1cc(OCCc2nc(-c3ccccc3)oc2C)ccc1OC(C)(C)C(=O)O [Example 24, 2-Methyl-2-{2-methyl-4-[2-(5-methyl-2-phenyloxazol-4-yl)ethoxy]phenoxy}propionic acid] | 0.239 | 94 | 117
13 | CCCc1cc(OCCc2nc(-c3ccccc3)oc2C)ccc1OCC(=O)O [Example 26, {4-[2-(5-methyl-2-phenyl-oxazol-4-yl)ethoxy]-2-propylphenoxy}acetic acid] | 1.15 | 52 | –
14 | CCCc1cc(OCCc2nc(-c3ccccc3)oc2C)ccc1OC(C)(C)C(=O)O [Example 26A, 2-Methyl-2-{4-[2-(5-methyl-2-phenyloxazol-4-yl)ethoxy]-2-propylphenoxy}propionic acid] | 0.102 | 74 | –
15 | Cc1oc(-c2ccccc2)nc1CCOc1ccc(OC(C)(C)C(=O)O)c(Cc2ccccc2)c1 [Example 32, 2-{2-Benzyl-4-[2-(5-methyl-2-phenyloxazol-4-yl)ethoxy]phenoxy}-2-methylpropionic acid] | 0.042 | 80 | –
16 | Cc1oc(-c2ccccc2)nc1CCOc1ccc(OC(C)(C)C(=O)O)c2ccccc12 [Example 37, 2-Methyl-2-{4-[2-(5-methyl-2-phenyl-oxazol-4-yl)-ethoxy]-naphthalen-1-yloxy}-propionic acid] | 0.172 | 60 | –
17 | Cc1oc(-c2ccccc2)nc1CCOc1ccc(OC(C)(C)C(=O)O)c2c1CCCC2 [Example 38, 2-Methyl-2-{4-[2-(5-methyl-2-phenyl-oxazol-4-yl)-ethoxy]-5,6,7,8-tetrahydro-naphthalen-1-yloxy}-propionic acid] | 0.081 | 65 | –
